Source: PMC9732439, “Biochemical and in silico inhibition of bovine and human carbonic anhydrase-II by 1H-1,2,3-triazole analogs” (Frontiers in Chemistry, 2022)

Columns and labels:
bCA-II [1] = target: T1, bCA-II (Bos taurus, UniProt P00921); test: In vitro carbonic anhydrase inhibition assay (p-NPA, spectrophotometric), bCA-II; assay type: biochemical, bovine; settings: for bCA-II IC50 ± S.E.M. / IC50: bovine CA-II, substrate p-NPA, 15 min at 25°C, triplicate; for IC50: read-out: bCA-II IC50 ± S.E.M.
T1 sequence (P00921 whole entry): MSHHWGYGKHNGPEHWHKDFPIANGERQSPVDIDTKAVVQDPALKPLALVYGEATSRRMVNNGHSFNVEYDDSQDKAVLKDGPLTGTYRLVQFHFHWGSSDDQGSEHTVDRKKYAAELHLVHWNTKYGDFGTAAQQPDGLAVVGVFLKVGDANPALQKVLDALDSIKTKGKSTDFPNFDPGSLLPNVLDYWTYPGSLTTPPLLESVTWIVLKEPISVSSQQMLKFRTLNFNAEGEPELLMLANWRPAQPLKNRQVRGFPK
Procedure: Total assay volume comprises 140 µl of HEPES-Tris buffer, 20 µl of bCA-II solution (0.1 mg/ml HEPES-Tris buffer), 20 µl of the test compound (prepared in DMSO), and 20 µl p-NPA (0.7 mM, methanol). First, the test compound and enzyme were incubated for 15 min at 25°C; after incubation, in quick sequence, substrate was added to each experiment in 96-well plates, which were placed in the ^xMARK microplate spectrophotometer (Bio-Rad, United States), and the absorbance was set to 400 nm with 1 min interval time. The activity of the controlled compound was taken as 100%.

hCA-II [2] = target: T2, hCA-II (Homo sapiens, UniProt P00918); test: In vitro carbonic anhydrase inhibition assay (p-NPA, spectrophotometric), hCA-II; assay type: biochemical; settings: for hCA-II IC50 ± S.E.M. / IC50: human CA-II, substrate p-NPA, triplicate; for IC50: read-out: hCA-II IC50 ± S.E.M.; for Selectivity for hCA-II: hCA-II versus bCA-II
bCA-II [3] = target: T1, bCA-II; test: Kinetics study against bCA-II; assay type: biochemical, bovine; settings: for Kmapp: Michaelis–Menten constant in the presence of inhibitor; for Vmaxapp: maximum velocity in the presence of inhibitor; for Ki: read-out: Ki ± SEM
Procedure: (§1) Soon after the incubation, various concentrations of substrate were added to the reaction medium (01–0.8 mM). The enzyme activity was measured under steady-state conditions by observing changes in absorbance for 30 min at 400 nm on the microtiter plate reader (Bio-Rad X-Mark^Tm molecular spectrometer, United States). The results were analyzed and processed by Grafit 7 software (Erithacus Software Limited, United Kingdom). Different kinetic parameters of enzymes (e.g., Vmax, Km, Vmaxapp, and Kmapp) and values of correlation coefficients, intercepts, slopes, and their standard error mean were calculated by the linear regression graph by Grafit 7. Linear regression analysis was used to calculate the “best fit” line or curve through a dataset by minimizing the deviation of the data from the curve.

hCA-II [4] = target: T2, hCA-II; test: Kinetics study against hCA-II; assay type: biochemical; settings: for Kmapp: Michaelis–Menten constant in the presence of inhibitor; for Vmaxapp: maximum velocity in the presence of inhibitor; for Ki: read-out: Ki ± SEM
Procedure: as §1

Row | bCA-II IC50 ± S.E.M. (bCA-II [1]) | hCA-II IC50 ± S.E.M. (hCA-II [2]) | IC50 (bCA-II [1]) [µM] | IC50 (hCA-II [2]) [µM] | SMILES | other results
1 | Inactive | Inactive | – | – | COc1cc(-c2ccc3ccccc3c2)ccc1O[C@H](C)Cn1cc(-c2ccc(F)cc2)nn1 [Compound 9q] | –
2 | Inactive | Inactive | – | – | COc1cc(-c2ccc(F)cc2)ccc1O[C@H](C)Cn1cc(-c2ccc(F)cc2)nn1 [Compound 9l] | –
3 | Inactive | Inactive | – | – | COc1cc(-c2cc3ccccc3s2)ccc1O[C@H](C)Cn1cc(-c2ccc(F)cc2)nn1 [Compound 9s] | –
4 | Inactive | – | – | 18.5 ± 0.4 | COc1cc(-c2ccc(Cl)cc2)ccc1O[C@H](C)Cn1cc(-c2ccc(F)cc2)nn1 [Compound 9j] | –
5 | – | Inactive | 16.4 ± 0.4 | – | COc1cc(-c2ccc(C)cc2)ccc1O[C@H](C)Cn1cc(-c2ccc(F)cc2)nn1 [Compound 9g] | –
6 | – | Inactive | 12.9 ± 1 | – | COc1ccc(-c2ccc(O[C@H](C)Cn3cc(-c4ccc(F)cc4)nn3)c(OC)c2)cc1 [Compound 9h] | –
7 | – | – | 11.1 ± 0.2 | 10.9 ± 1 | COc1cc(-c2ccc([N+](=O)[O-])cc2)ccc1O[C@H](C)Cn1cc(-c2ccc(F)cc2)nn1 [Compound 9i] | Type of inhibition (bCA-II [3]): competitive inhibition; Kmapp (bCA-II [3]): 5.6 mM; Vmaxapp (bCA-II [3]): 23.2 (µmol/min)^−1; Ki (bCA-II [3]): 9.4 ± 0.3 µM; Type of inhibition (hCA-II [4]): competitive inhibition; Kmapp (hCA-II [4]): 3.9 mM; Vmaxapp (hCA-II [4]): 26.1 (µmol/min)^−1; Ki (hCA-II [4]): 8.1 ± 0.04 µM
8 | – | – | 22.4 ± 0.4 | 23 ± 0.3 | COc1cc(-c2ccc(C=O)cc2)ccc1O[C@H](C)Cn1cc(-c2ccc(F)cc2)nn1 [Compound 9n] | –
9 | Inactive | – | – | 21.3 ± 0.8 | COc1cc(-c2ccc(C#N)cc2)ccc1O[C@H](C)Cn1cc(-c2ccc(F)cc2)nn1 [Compound 9k] | Selectivity for hCA-II (hCA-II [2]): selective inhibitors of the hCA-II
10 | – | – | 41 ± 0.4 | 27.4 ± 0.9 | COc1cc(-c2cc(C(F)(F)F)cc(C(F)(F)F)c2)ccc1O[C@H](C)Cn1cc(-c2ccc(F)cc2)nn1 [Compound 9m] | –
11 | – | – | 14.1 ± 0.2 | 13.6 ± 1 | COc1cc(-c2c(F)cccc2F)ccc1O[C@H](C)Cn1cc(-c2ccc(F)cc2)nn1 [Compound 9o] | Type of inhibition (bCA-II [3]): competitive inhibition; Kmapp (bCA-II [3]): 4.9 mM; Vmaxapp (bCA-II [3]): 24.6 (µmol/min)^−1; Ki (bCA-II [3]): 11.3 ± 0.17 µM; Type of inhibition (hCA-II [4]): competitive inhibition; Kmapp (hCA-II [4]): 4.2 mM; Vmaxapp (hCA-II [4]): 25.3 (µmol/min)^−1; Ki (hCA-II [4]): 6.5 ± 0.19 µM
12 | – | Inactive | 29 ± 1 | – | COc1cc(-c2ccc(C(C)=O)cc2)ccc1O[C@H](C)Cn1cc(-c2ccc(F)cc2)nn1 [Compound 9r] | Selectivity for bCA-II (bCA-II [1]; bCA-II versus hCA-II): selective inhibitors of bCA-II
13 | Inactive | – | – | 19.3 ± 0.2 | COc1cc(-c2ccc(F)c(F)c2F)ccc1O[C@H](C)Cn1cc(-c2ccc(F)cc2)nn1 [Compound 9p] | Selectivity for hCA-II (hCA-II [2]): selective inhibitors of the hCA-II

Further lines, the compound ahead of its results:

Row | SMILES | bCA-II IC50 ± S.E.M. (bCA-II [1]) | hCA-II IC50 ± S.E.M. (hCA-II [2]) | IC50 (bCA-II [1]) [µM] | IC50 (hCA-II [2]) [µM] | other results
14 | COC(=O)c1cn(C[C@@H](C)Oc2ccc(Br)cc2OC)nn1 [Compound 7d] | – | – | 12.3 ± 0.4 | 25.1 ± 0.4 | –
15 | COc1cc(Br)ccc1O[C@H](C)Cn1cc(-c2ccccc2)nn1 [Compound 7a] | – | – | 21.4 ± 0.1 | 35.3 ± 0.6 | –
16 | COc1cc(-c2ccc(C)cc2)ccc1O[C@H](C)Cn1cc(-c2ccc(C(F)(F)F)cc2)nn1 [Compound 9a] | – | – | 25.7 ± 0.2 | 21 ± 1 | –
17 | COc1cc(-c2ccccc2C(F)(F)F)ccc1O[C@H](C)Cn1cc(-c2ccc(C(F)(F)F)cc2)nn1 [Compound 9c] | Inactive | – | – | 12.5 ± 0.6 | Selectivity for hCA-II (hCA-II [2]): selective inhibitors of the hCA-II
18 | COc1cc(-c2ccccc2)ccc1O[C@H](C)Cn1cc(-c2ccc(F)cc2)nn1 [Compound 9f] | – | Inactive | 88.4 ± 0.3 | – | –
19 | COc1cc(Br)ccc1O[C@H](C)Cn1cc(-c2ccc(F)cc2)nn1 [Compound 7c] | – | – | 20.4 ± 0.3 | 22.8 ± 0.2 | –
20 | COc1cc(-c2ccc(F)cc2)ccc1O[C@H](C)Cn1cc(-c2ccc(C(F)(F)F)cc2)nn1 [Compound 9d] | – | Inactive | 28.8 ± 0.4 | – | –
21 | COc1ccc(-c2ccc(O[C@H](C)Cn3cc(-c4ccc(C(F)(F)F)cc4)nn3)c(OC)c2)cc1 [Compound 9b] | – | – | 39.1 ± 0.3 | 22.4 ± 0.4 | –
22 | COc1cc(Br)ccc1O[C@H](C)Cn1cc(-c2ccc(C(F)(F)F)cc2)nn1 [Compound 7b] | – | – | 20.6 ± 0.3 | 45.1 ± 0.5 | –
23 | COc1cc(-c2ccc([N+](=O)[O-])cc2)ccc1O[C@H](C)Cn1cc(-c2ccc(C(F)(F)F)cc2)nn1 [Compound 9e] | – | Inactive | 17.8 ± 0.8 | – | –
